From US12723063B2, “GIPR-agonist compounds” (Eli Lilly and Company, priority 2019, dated 2026)
*1 amine or outer side, *2 acyl side, *3 side chain or, on linkers, in order; H or OH if unused. Where a SMILES comes first, the peptide text is derived from it. Side-chain parts run from the residue outwards. [ ]: non-standard residue; d: D form. The star is where a group is joined. C20 diacid = O=C(O)CCCCCCCCCCCCCCCCCCC(=O)*; C18 diacid = O=C(O)CCCCCCCCCCCCCCCCC(=O)*; αMePhe(2-F) = C[C@](N)(Cc1ccccc1F)C(=O)O; γGlu = O=C(O)[C@H](CCC(=O)[*:2])N[*:1]; 4Pal = N[C@@H](Cc1ccncc1)C(=O)O; αMeL = CC(C)C[C@](C)(N)C(=O)O; Iva = CC[C@](C)(N)C(=O)O; Orn = NCCC[C@H](N)C(=O)O; AEEA = NCCOCCOCC(=O)O; Aib = CC(C)(N)C(=O)O

Biological target: T1, human GLP-1R (Homo sapiens, UniProt P43220)
T1 construct: expressed in transfected cells; crude membranes
Test: [125I]-GLP-1 binding, SPA with WGA beads, 0.1% bacitracin
Settings: geometric mean, read-out: hGLP1R Ki
In short: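 Binding buffer was 25 mM HEPES pH 7.4 with 2.5 mM CaCl2, 1 mM MgCl2, 0.1% (w/v) bacitracin, 0.003% Tween-20 and EDTA-free protease inhibitors. Four-parameter regression gave IC50, converted to Ki (geometric mean, SEM, n independent days).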

T1 sequence (P43220 24-463): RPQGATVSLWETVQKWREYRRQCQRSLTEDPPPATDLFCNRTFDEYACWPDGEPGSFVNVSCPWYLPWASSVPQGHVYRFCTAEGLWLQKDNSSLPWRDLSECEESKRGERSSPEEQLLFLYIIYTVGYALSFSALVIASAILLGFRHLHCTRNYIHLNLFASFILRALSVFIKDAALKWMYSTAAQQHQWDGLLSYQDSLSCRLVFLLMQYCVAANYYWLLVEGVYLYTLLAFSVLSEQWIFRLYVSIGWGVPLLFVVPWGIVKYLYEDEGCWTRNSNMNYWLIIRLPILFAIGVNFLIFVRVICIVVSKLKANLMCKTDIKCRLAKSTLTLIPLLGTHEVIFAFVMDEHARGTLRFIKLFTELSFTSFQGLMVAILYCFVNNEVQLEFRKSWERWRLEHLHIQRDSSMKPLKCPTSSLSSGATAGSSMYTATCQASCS

Row | Compound | Ki
1 | CC[C@H](C)[C@H](NC(=O)[C@H](CCCN)NC(=O)[C@H](CC(=O)O)NC(=O)[C@H](CC(C)C)NC(=O)[C@](C)(CC(C)C)NC(=O)[C@@H](NC(=O)[C@H](CO)NC(=O)[C@H](Cc1ccc(O)cc1)NC(=O)[C@H](CC(=O)O)NC(=O)[C@H](CO)NC(=O)[C@@H](NC(=O)[C@H](Cc1ccccc1)NC(=O)[C@@H](NC(=O)CNC(=O)[C@H](CCC(=O)O)NC(=O)C(C)(C)NC(=O)[C@@H](N)Cc1ccc(O)cc1)[C@@H](C)O)[C@@H](C)CC)[C@@H](C)CC)C(=O)N[C@@H](Cc1c[nH]cn1)C(=O)N[C@@H](CCC(N)=O)C(=O)NC(C)(C)C(=O)N[C@@H](CCC(=O)O)C(=O)N[C@@H](Cc1ccccc1)C(=O)N[C@H](C(=O)N[C@H](CCC(=O)O)C(=O)N[C@@H](Cc1ccc(O)cc1)C(=O)N[C@@H](CCCCNC(=O)COCCOCCNC(=O)COCCOCCNC(=O)CC[C@H](NC(=O)CCCCCCCCCCCCCCCCCCC(=O)O)C(=O)O)C(=O)N[C@@H](CC(C)C)C(=O)N[C@@H](CCC(=O)O)C(=O)NCC(=O)NCC(=O)N1CCC[C@H]1C(=O)N[C@@H](CO)C(=O)N[C@@H](CO)C(=O)NCC(=O)N[C@@H](C)C(=O)N1CCC[C@H]1C(=O)N1CCC[C@H]1C(=O)N1CCC[C@H]1C(=O)N[C@@H](CO)C(N)=O)C(C)C [Example 102] (H-Y[Aib]EGTFISDYSI[αMeL]LD[Orn]IHQ[Aib]EFV[dE]YK([AEEA-AEEA-γGlu-C20 diacid])LEGGPSSGAPPPS-NH2) | > 0.913 µM
2 | CC[C@H](C)[C@H](NC(=O)[C@H](CO)NC(=O)[C@H](Cc1ccc(O)cc1)NC(=O)[C@H](CC(=O)O)NC(=O)[C@H](CO)NC(=O)[C@@H](NC(=O)[C@](C)(Cc1ccccc1F)NC(=O)[C@@H](NC(=O)CNC(=O)[C@H](CCC(=O)O)NC(=O)C(C)(C)NC(=O)[C@@H](N)Cc1ccc(O)cc1)[C@@H](C)O)[C@@H](C)CC)C(=O)N[C@@H](C)C(=O)N[C@@H](CC(C)C)C(=O)N[C@@H](CC(=O)O)C(=O)N[C@@H](CCCCN)C(=O)N[C@H](C(=O)N[C@@H](Cc1c[nH]cn1)C(=O)N[C@@H](CCC(N)=O)C(=O)NC(C)(C)C(=O)N[C@@H](CC(=O)O)C(=O)N[C@@H](Cc1ccccc1)C(=O)N[C@H](C(=O)N[C@@H](CCC(=O)O)C(=O)N[C@@H](Cc1ccc(O)cc1)C(=O)N[C@@H](CCCCNC(=O)COCCOCCNC(=O)COCCOCCNC(=O)CC[C@H](NC(=O)CCCCCCCCCCCCCCCCCCC(=O)O)C(=O)O)C(=O)N[C@@H](CC(C)C)C(=O)N[C@@H](CCC(=O)O)C(=O)NCC(=O)NCC(=O)N1CCC[C@H]1C(=O)N[C@@H](CO)C(=O)N[C@@H](CO)C(=O)NCC(=O)N[C@@H](C)C(=O)N1CCC[C@H]1C(=O)N1CCC[C@H]1C(=O)N1CCC[C@H]1C(=O)N[C@@H](CO)C(N)=O)C(C)C)[C@@H](C)CC [Example 99] (H-Y[Aib]EGT[αMePhe(2-F)]ISDYSIALDKIHQ[Aib]DFVEYK([AEEA-AEEA-γGlu-C20 diacid])LEGGPSSGAPPPS-NH2) | > 0.901 µM
3 | CC[C@H](C)[C@H](NC(=O)[C@H](CO)NC(=O)[C@H](Cc1ccc(O)cc1)NC(=O)[C@H](CC(=O)O)NC(=O)[C@H](CO)NC(=O)[C@@H](NC(=O)[C@H](Cc1ccccc1)NC(=O)[C@@H](NC(=O)CNC(=O)[C@H](CCC(=O)O)NC(=O)[C@@H](C)NC(=O)[C@@H](N)Cc1ccc(O)cc1)[C@@H](C)O)[C@@H](C)CC)C(=O)N[C@@H](CC(C)C)C(=O)N[C@@H](CC(C)C)C(=O)N[C@@H](CC(=O)O)C(=O)N[C@@H](CCCCN)C(=O)N[C@@H](CCCCNC(=O)COCCOCCNC(=O)COCCOCCNC(=O)CC[C@H](NC(=O)CCCCCCCCCCCCCCCCC(=O)O)C(=O)O)C(=O)N[C@@H](C)C(=O)N[C@@H](CCC(N)=O)C(=O)NC(C)(C)C(=O)N[C@@H](CC(=O)O)C(=O)N[C@@H](Cc1ccccc1)C(=O)N[C@H](C(=O)N[C@@H](CCC(=O)O)C(=O)N[C@@H](Cc1c[nH]c2ccccc12)C(=O)N[C@@H](CC(C)C)C(=O)N[C@@H](CC(C)C)C(=O)N[C@@H](C)C(=O)N[C@@H](CCC(N)=O)C(=O)NCC(=O)N1CCC[C@H]1C(=O)N[C@@H](CO)C(=O)N[C@@H](CO)C(=O)NCC(=O)N[C@@H](C)C(=O)N1CCC[C@H]1C(=O)N1CCC[C@H]1C(=O)N1CCC[C@H]1C(=O)N[C@@H](CO)C(N)=O)C(C)C [Example 16] (H-Y[dA]EGTFISDYSILLDKK([AEEA-AEEA-γGlu-C18 diacid])AQ[Aib]DFVEWLLAQGPSSGAPPPS-NH2) | 0.0992 µM
4 | CC[C@H](C)[C@H](NC(=O)[C@H](CO)NC(=O)[C@H](Cc1ccc(O)cc1)NC(=O)[C@H](CC(=O)O)NC(=O)[C@H](CO)NC(=O)[C@@H](NC(=O)[C@H](Cc1ccccc1)NC(=O)[C@@H](NC(=O)CNC(=O)[C@H](CCC(=O)O)NC(=O)C(C)(C)NC(=O)[C@@H](N)Cc1ccc(O)cc1)[C@@H](C)O)[C@@H](C)CC)C(=O)N[C@@H](C)C(=O)N[C@@H](CC(C)C)C(=O)N[C@@H](CC(=O)O)C(=O)N[C@@H](CCCCN)C(=O)N[C@@H](CCCCNC(=O)COCCOCCNC(=O)COCCOCCNC(=O)CC[C@H](NC(=O)CCCCCCCCCCCCCCCCC(=O)O)C(=O)O)C(=O)N[C@@H](Cc1c[nH]cn1)C(=O)N[C@@H](CCC(N)=O)C(=O)NC(C)(C)C(=O)N[C@@H](CC(=O)O)C(=O)N[C@@H](Cc1ccccc1)C(=O)N[C@H](C(=O)N[C@@H](CCC(=O)O)C(=O)N[C@@H](Cc1ccncc1)C(=O)N[C@@H](CC(C)C)C(=O)N[C@@H](CC(C)C)C(=O)N[C@@H](C)C(=O)NCC(=O)NCC(=O)N1CCC[C@H]1C(=O)N[C@@H](CO)C(=O)N[C@@H](CO)C(=O)NCC(=O)N[C@@H](C)C(=O)N1CCC[C@H]1C(=O)N1CCC[C@H]1C(=O)N1CCC[C@H]1C(=O)N[C@@H](CO)C(N)=O)C(C)C [Example 21] (H-Y[Aib]EGTFISDYSIALDKK([AEEA-AEEA-γGlu-C18 diacid])HQ[Aib]DFVE[4Pal]LLAGGPSSGAPPPS-NH2) | 0.801 µM
5 | CC[C@H](C)[C@H](NC(=O)[C@H](CO)NC(=O)[C@H](Cc1ccc(O)cc1)NC(=O)[C@H](CC(=O)O)NC(=O)[C@H](CO)NC(=O)[C@@H](NC(=O)[C@](C)(CC)NC(=O)[C@@H](NC(=O)CNC(=O)[C@H](CCC(=O)O)NC(=O)C(C)(C)NC(=O)[C@@H](N)Cc1ccc(O)cc1)[C@@H](C)O)[C@@H](C)CC)C(=O)N[C@@](C)(CC(C)C)C(=O)N[C@@H](CC(C)C)C(=O)N[C@@H](CC(=O)O)C(=O)N[C@@H](CCCN)C(=O)N[C@@H](CCCCNC(=O)COCCOCCNC(=O)COCCOCCNC(=O)CC[C@H](NC(=O)CCCCCCCCCCCCCCCCCCC(=O)O)C(=O)O)C(=O)N[C@@H](Cc1c[nH]cn1)C(=O)N[C@@H](CCC(N)=O)C(=O)NC(C)(C)C(=O)N[C@@H](CC(=O)O)C(=O)N[C@@H](Cc1ccccc1)C(=O)N[C@H](C(=O)N[C@@H](CCC(=O)O)C(=O)N[C@@H](Cc1ccncc1)C(=O)N[C@@H](CC(C)C)C(=O)N[C@@H](CC(C)C)C(=O)N[C@@H](CCC(=O)O)C(=O)NCC(=O)NCC(=O)N1CCC[C@H]1C(=O)N[C@@H](CO)C(=O)N[C@@H](CO)C(=O)NCC(=O)N[C@@H](C)C(=O)N1CCC[C@H]1C(=O)N1CCC[C@H]1C(=O)N1CCC[C@H]1C(=O)N[C@@H](CO)C(N)=O)C(C)C [Example 76] (H-Y[Aib]EGT[Iva]ISDYSI[αMeL]LD[Orn]K([AEEA-AEEA-γGlu-C20 diacid])HQ[Aib]DFVE[4Pal]LLEGGPSSGAPPPS-NH2) | 0.263 µM
